Data published in ChEMBL document CHEMBL5325445, “Discovery and development of small-molecule heparanase inhibitors” (Bioorg Med Chem, 2023).

Key:
[1] = Anti-angiogenic activity in human endothelial cells assessed as reduction in cell growth
[2] = target: T1, Heparanase (Homo sapiens, UniProt Q9Y251); experiment: Inhibition of heparanase (unknown origin)
T1 sequence (Q9Y251 whole entry): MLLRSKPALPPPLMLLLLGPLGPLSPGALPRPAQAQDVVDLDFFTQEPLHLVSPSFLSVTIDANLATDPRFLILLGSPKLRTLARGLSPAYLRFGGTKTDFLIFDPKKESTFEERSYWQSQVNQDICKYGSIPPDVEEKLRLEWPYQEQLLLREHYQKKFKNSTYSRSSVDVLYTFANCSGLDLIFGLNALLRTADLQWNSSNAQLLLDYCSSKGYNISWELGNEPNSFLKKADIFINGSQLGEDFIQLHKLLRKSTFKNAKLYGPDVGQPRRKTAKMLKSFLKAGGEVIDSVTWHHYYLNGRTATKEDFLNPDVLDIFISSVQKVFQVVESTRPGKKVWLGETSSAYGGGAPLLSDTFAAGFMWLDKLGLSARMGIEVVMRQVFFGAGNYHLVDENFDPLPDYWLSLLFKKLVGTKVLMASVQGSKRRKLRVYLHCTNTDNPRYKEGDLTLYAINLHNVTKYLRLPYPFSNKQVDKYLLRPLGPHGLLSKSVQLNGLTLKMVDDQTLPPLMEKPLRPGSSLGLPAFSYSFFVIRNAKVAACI

[3] = system: HT-1080; experiment: Inhibition of cell invasion in human HT-1080 cells
[4] = system: U2OS; experiment: Anti-invasive activity against human U2OS cells assessed as cell invasion at 2.5 uM; assay type: functional
[5] = Antiproliferative activity against mouse Lewis lung carcinoma cells assessed as reduction in cell viability measured after 24 hrs by MTT assay; assay type: functional, cell-based
[6] = system: HepG2; experiment: Antiproliferative activity against human HepG2 cells assessed as reduction in cell viability measured after 24 hrs by MTT assay; assay type: functional, cell-based; settings: HepG2, 24 h

In the case of COc1ccc(N2C(=O)c3ccc(C(=O)O)cc3C2=O)cc1-c1nc2cc(-c3cc(F)cc(F)c3)ccc2o1, the IC50 [1] is reported as < 10 µM.
CCCNc1ccc(N2C(=O)c3ccc(C(=O)O)cc3C2=O)cc1-c1nc2cc(-c3ccc(Cl)cc3)ccc2o1 showed an IC50 [1] of 0.2 µM.
For COc1cccc(-n2nc(C(=O)O)cc2-c2ccc(C3CCCCC3)c(Cl)c2)c1, the IC50 [2] was 10 µM.
CCCCCCCCCCCCCCCC(=O)C1=C(OCc2ccccc2)[C@@H](CO)OC1=O showed an IC50 [3] of 1.5 µM.
With COc1ccc(-c2nc3cc(-c4ccc(F)cc4)ccc3o2)cc1N1C(=O)c2ccc(C(=O)O)cc2C1=O the IC50 [1] was < 10 µM.
With COc1ccc(N2C(=O)c3ccc(C(=O)O)cc3C2=O)cc1-c1nc2cc(-c3ccc4c(c3)OCO4)ccc2o1 the IC50 [1] was 0.75 µM.
Compound COCCOc1ccc(-c2nc3cc(-c4ccccc4)ccc3o2)cc1N1C(=O)c2ccc(C(=O)O)cc2C1=O has an IC50 [1] of 5 µM.
O=C(Nc1ccc(-c2nc3ccccc3[nH]2)cc1)c1ccc(C(=O)Nc2ccc(-c3nc4ccccc4[nH]3)cc2)cc1 showed an inhibition at 2.5 µM [4] of 80%.
For CCCNc1ccc(N2C(=O)c3ccc(C(=O)O)cc3C2=O)cc1-c1nc2cc(-c3ccc(OC(F)(F)F)cc3)ccc2o1, the IC50 [1] was 0.2 µM.
CCCNc1ccc(N2C(=O)c3ccc(C(=O)O)cc3C2=O)cc1-c1nc2cc(-c3ccc(C(F)(F)F)cc3)ccc2o1 showed an IC50 [1] of 0.2 µM.
CCCNc1ccc(N2C(=O)c3ccc(C(=O)O)cc3C2=O)cc1-c1nc2cc(-c3ccc(F)cc3)ccc2o1 gave an IC50 [1] of 0.2 µM.
With CCCNc1ccc(N2C(=O)c3ccc(C(=O)O)cc3C2=O)cc1-c1nc2cc(-c3cccc(Cl)c3)ccc2o1 the IC50 [1] was 0.2 µM.
In the case of CCCNc1ccc(N2C(=O)c3ccc(C(=O)O)cc3C2=O)cc1-c1nc2cc(-c3ccc(F)c(Cl)c3)ccc2o1, the IC50 [1] is reported as 0.2 µM.
Work on Oc1c(I)cc(I)cc1-c1nn2c(-c3ccccc3)nnc2s1 yielded an IC50 [5] of 8.3 µM and an IC50 [6] of 11.9 µM.
For Oc1ccc(I)cc1-c1nn2c(-c3ccccc3)nnc2s1, the IC50 [5] was 16.6 µM and the IC50 [6] was 18.4 µM.
With COc1ccc(-c2nc3cc(-c4cccc(-c5ccccc5)c4)ccc3o2)cc1N1C(=O)c2ccc(C(=O)O)cc2C1=O the IC50 [1] was 1 µM.
Work on O=C(Nn1c(-c2ccccc2)n[nH]c1=S)c1cc(I)cc(I)c1O yielded an IC50 [5] of 11.8 µM and an IC50 [6] of 14.9 µM.
Compound O=C(O)c1ccc2c(c1)C(=O)N(c1cccc(-c3nc4cc(-c5cccc(-c6ccccc6)c5)ccc4o3)c1)C2=O has an IC50 [1] of 1 µM.
Compound O=C(O)c1ccc2c(c1)C(=O)N(c1ccc(NC(=O)c3cccc(C(=O)Nc4ccc(N5C(=O)c6ccc(C(=O)O)cc6C5=O)cc4Cl)c3)c(Cl)c1)C2=O has an inhibition at 2.5 µM [4] of 75%.
